*1 amine or outer side, *2 acyl side, *3 side chain or, on linkers, in order; H or OH if unused. Where a SMILES comes first, the peptide text is derived from it. Side-chain parts run from the residue outwards. [ ]: non-standard residue; d: D form. The star is where a group is joined. C20 diacid = O=C(O)CCCCCCCCCCCCCCCCCCC(=O)*; C18 diacid = O=C(O)CCCCCCCCCCCCCCCCC(=O)*; γGlu = O=C(O)[C@H](CCC(=O)[*:2])N[*:1]; AEEA = NCCOCCOCC(=O)O; Aib = CC(C)(N)C(=O)O
Legend:
C57Bl/6 mice = experiment: Intraperitoneal glucose tolerance test (ipGTT) after s.c. treatment; assay type: in vivo; details: 10 nmol/kg s.c. 6 h before i.p. glucose load, mean ± SEM
Method: Healthy, normoglycemic male C57Bl/6NCrl mice were ordered in an age of 9-10 weeks with an approximate body weight (BW) of 24-26 g at Charles River Laboratories Deutschland GmbH, 97633 Sulzfeld, Germany. Mice were shipped grouped housed (N=4 per cage), acclimatized for one week and remained grouped housed throughout the entire study. Mice were housed under vivarium conditions that included a 12 h light/dark cycle (light phase 06:00 AM-06:00 PM), mean room temperature of 22±2° C. and a relative mean humidity of 55±10%. All animals had free access to food (Ssniff R/M-H diet) and water prior to study start.
The primary objective of the study was to investigate the compound-induced lowering of the blood glucose excursion and improvement of glucose tolerance in a mouse ipGTT setting and therefore the primary parameters included blood glucose, delta blood glucose (normalized to the time point just prior to the i.p. glucose challenge, t=0 h) and their respective calculated area under curve (AUC) values. The study was performed as an acute, single dosing study with 6 groups and the male animals were randomly divided to groups of 7-8 mice per group. Dose-dependent pharmacodynamic blood glucose lowering efficacy of the GIPR agonist was analyzed with s.c. injections 6 h before the i.p. glucose load in the dose range from 3 up to 100 nmol/kg and compared to the vehicle group as well as the semaglutide positive control at a dose of 10 nmol/kg.
In more detail, mice were fed overnight and on the following morning brought to the lab with food removed but ad libitum access to water. Blood samplings (5 μl) were performed at: −6.5, −0.5, 0, 0.17, 0.5, 1, 1.5, 2 and 3 h before and after the glucose bolus of 1 g glucose per kg BW i.p. given at time point t=0 h. On time point t=0.17 h an additional K-EDTA plasma sample from 60-80 μl blood was taken for plasma insulin analysis. Blood was withdrawn from the tip of the tail. The GIPR agonist and semaglutide were dissolved in 10 mM phosphate buffer pH 7.4 with 2.3% glycerol and 0.01% polysorbat 20 (vehicle) and s.c. treatment was performed −6 h before the glucose load (t=0 h) using an injection volume of 5 ml/kg. The injection solutions were freshly prepared prior to the experiment using sterile filtered vehicle solution.
Blood glucose was determined enzymatically (Gluco-quant® Glucose/HK kit on Roche/Hitachi 912). Plasma insulin was determined using a mouse/rat insulin sandwich immunoassay kit from Meso Scale Discovery.
All data were collected using Microsoft Excel. None of the data were collected online. The results are expressed as means±standard error of the mean (SEM). As primary study parameters, blood glucose, baseline (time point t=0 h) subtracted delta blood glucose and their respective calculated area under curve (AUC) values were determined. The respective AUC data were calculated using the trapezoid rule for the time period t=0 h until t=2 h.
The statistical analysis of the ipGTT blood glucose excursion data response following subcutaneous compound or vehicle treatment was performed on the calculated AUC values of blood glucose raw data as well as the calculated AUC values for baseline subtracted delta blood glucose data. In a first step the Levene's test was used to test for equality of variances between groups. Where Levene's test was significant (p s 0.05), a rank transformation of the calculated AUC data was applied to stabilize the variances before ANOVA analysis was conducted. Where Levene's test was not significant (p>0.05) ANOVA was conducted without prior rank transformation. In a second step a One-way ANOVA analysis for factor treatment followed by Dunnett's multiple comparisons test vs. vehicle group was used to test for statistical differences. Different levels of significance were defined as *=p<0.05, **=p<0.001, ***=p<0.0001. All analyses were performed using SAS (version 9.4) under Linux via the interface software EverSt@t V6.1. […]

physchem = assay type: physicochemical; details: for Soluble amount: 24 h, pH 7.4; for solubility at 24 h: pH 7.4, Soluble amount
Method: Prior to the solubility measurement of a peptide batch, its purity was determined through UHPLC/MS. […] Therefore, solutions from solid samples were prepared in a buffer system with a concentration of 10 mg/ml compound based on the previously determined % purity: Solubility buffer system A) 100 mM phosphate buffer pH 7.4 […] Solubility buffer system C) 100 mM phosphate buffer pH 7.4, 2.7 mg/ml m-cresol UHPLC-UV was performed after 1 h of gentle agitation and storage at 5° C. over night (24 h) from the supernatant, which was obtained after 15 min of centrifugation at 2500 RCF (relative centrifugal acceleration). […] The different UV extinction coefficients of sample and reference peptide were calculated based on the different amino acid sequences and considered in the concentration calculation. The analytical method used was Analytical UHPLC Method A. Peptide samples were prepared in solubility buffer system A or C and solubility was assessed as described in Methods.

[1] = target: human GLP-1 receptor (hGLP-1R) (Homo sapiens, UniProt P43220); experiment: cAMP HTRF assay, HEK-293 cell line over-expressing human GLP-1 receptor; assay type: cell-based; details: HEK-293, cAMP, 0% HSA
Chain of human GLP-1 receptor (hGLP-1R) (P43220 24-463): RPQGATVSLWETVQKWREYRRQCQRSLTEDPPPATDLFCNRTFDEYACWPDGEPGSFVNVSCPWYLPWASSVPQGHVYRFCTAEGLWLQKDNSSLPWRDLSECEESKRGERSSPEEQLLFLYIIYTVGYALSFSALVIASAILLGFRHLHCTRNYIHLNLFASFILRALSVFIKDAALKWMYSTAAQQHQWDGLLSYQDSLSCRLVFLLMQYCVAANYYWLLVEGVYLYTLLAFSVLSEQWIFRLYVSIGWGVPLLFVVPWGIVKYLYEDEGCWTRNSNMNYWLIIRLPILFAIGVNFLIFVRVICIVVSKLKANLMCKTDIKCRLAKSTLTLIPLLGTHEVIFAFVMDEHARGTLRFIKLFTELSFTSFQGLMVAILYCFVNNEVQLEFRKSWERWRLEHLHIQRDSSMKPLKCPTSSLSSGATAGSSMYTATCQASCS
Method: Each vial contained 1.8 ml cells. The vials were slowly frozen to −80° C. in isopropanol, and then transferred in liquid nitrogen for storage.
Prior to their use, frozen cells were thawed quickly at 37° C. and washed (5 min at 900 rpm) with 20 ml cell buffer (1× HBSS; 20 mM HEPES, plus 0.1% HSA if indicated in Example conditions).
For measurement of cAMP generation, 5 μl cells (final 5000 cells/well) and 5 μl of test compound were added to a 384-well plate, followed by incubation for 30 min at room temperature.
The cAMP generated was determined using a kit from Cisbio Corp. based on HTRF (Homogenous Time Resolved Fluorescence). The cAMP assay was performed according to manufacturer's instructions (Cisbio).

Row | Compound | Incremental blood glucose concentration AUCi (C57Bl/6 mice; vehicle +4.93 ± 0.324) | Blood glucose concentration AUC (C57Bl/6 mice; vehicle +22.15 ± 0.662) | Soluble amount (physchem) | solubility at 24 h (physchem) | EC50 [1]
1 | semaglutide [reference compound] | +1.15 ± 0.255 mmol/L* 0-2 h | +10.21 ± 0.503 mmol/L* 0-2 h | – | – | –
2 | CC[C@H](C)[C@H](NC(=O)[C@H](Cc1ccccc1)NC(=O)[C@H](CCC(=O)O)NC(=O)[C@H](CCC(=O)O)NC(=O)[C@H](CCC(N)=O)NC(=O)[C@H](Cc1c[nH]cn1)NC(=O)[C@@H](NC(=O)[C@H](CCCNC(=N)N)NC(=O)[C@H](CC(=O)O)NC(=O)[C@H](CCCCNC(=O)COCCOCCNC(=O)COCCOCCNC(=O)CC[C@H](NC(=O)CC[C@H](NC(=O)CCCCCCCCCCCCCCCCCCC(=O)O)C(=O)O)C(=O)O)NC(=O)C(C)(C)NC(=O)[C@@H](NC(=O)[C@H](CO)NC(=O)[C@H](CC(C)C)NC(=O)[C@H](CC(=O)O)NC(=O)[C@H](CO)NC(=O)[C@@H](NC(=O)[C@H](Cc1ccccc1)NC(=O)[C@@H](NC(=O)CNC(=O)[C@H](CCC(=O)O)NC(=O)C(C)(C)NC(=O)[C@@H](N)Cc1ccc(O)cc1)[C@@H](C)O)[C@@H](C)CC)[C@@H](C)CC)[C@@H](C)CC)C(=O)N[C@@H](CCC(=O)O)C(=O)N[C@@H](Cc1c[nH]c2ccccc12)C(=O)N[C@@H](CC(C)C)C(=O)N[C@@H](CC(C)C)C(=O)N[C@@H](C)C(=O)N[C@@H](CCC(N)=O)C(=O)NCC(=O)N1CCC[C@H]1C(=O)N[C@@H](CO)C(=O)N[C@@H](CO)C(=O)NCC(=O)N[C@@H](C)C(=O)N1CCC[C@H]1C(=O)N1CCC[C@H]1C(=O)N1CCC[C@H]1C(=O)N[C@@H](CO)C(N)=O [SEQ ID NO: 15, H2N-Y-Aib-E-G-T-F-I-S-D-I-S-I-Aib-K[{AEEA}2-{gGlu}2-C20OH]-DRIHQEEFIEWILAQGPSSGAPPPS-NH2] (H-Y[Aib]EGTFISDLSI[Aib]K([AEEA-AEEA-γGlu-γGlu-C20 diacid])DRIHQEEFIEWLLAQGPSSGAPPPS-NH2) | – | – | >9.2 mg/mL | > 10300 µg/mL | > 0.01 µM
3 | CC[C@H](C)[C@H](NC(=O)[C@H](Cc1ccccc1)NC(=O)[C@H](CCC(=O)O)NC(=O)[C@H](CCC(=O)O)NC(=O)[C@H](CCC(N)=O)NC(=O)[C@H](Cc1c[nH]cn1)NC(=O)[C@@H](NC(=O)[C@H](CCCNC(=N)N)NC(=O)[C@H](CC(=O)O)NC(=O)[C@H](CCCCNC(=O)COCCOCCNC(=O)COCCOCCNC(=O)CC[C@H](NC(=O)CC[C@H](NC(=O)CCCCCCCCCCCCCCCCC(=O)O)C(=O)O)C(=O)O)NC(=O)C(C)(C)NC(=O)[C@@H](NC(=O)[C@H](CO)NC(=O)[C@H](CC(C)C)NC(=O)[C@H](CC(=O)O)NC(=O)[C@H](CO)NC(=O)[C@@H](NC(=O)[C@H](Cc1ccccc1)NC(=O)[C@@H](NC(=O)CNC(=O)[C@H](CCC(=O)O)NC(=O)C(C)(C)NC(=O)[C@@H](N)Cc1ccc(O)cc1)[C@@H](C)O)[C@@H](C)CC)[C@@H](C)CC)[C@@H](C)CC)C(=O)N[C@@H](CCC(=O)O)C(=O)N[C@@H](Cc1c[nH]c2ccccc12)C(=O)N[C@@H](CC(C)C)C(=O)N[C@@H](CC(C)C)C(=O)N[C@@H](C)C(=O)N[C@@H](CCC(N)=O)C(=O)NCC(=O)N1CCC[C@H]1C(=O)N[C@@H](CO)C(=O)N[C@@H](CO)C(=O)NCC(=O)N[C@@H](C)C(=O)N1CCC[C@H]1C(=O)N1CCC[C@H]1C(=O)N1CCC[C@H]1C(=O)N[C@@H](CO)C(N)=O [SEQ ID NO: 14, H2N-Y-Aib-E-G-T-F-I-S-D-I-S-I-Aib-K[{AEEA}2-{gGlu}2-C18OH]-DRIHQEEFIEWILAQGPSSGAPPPS-NH2] (H-Y[Aib]EGTFISDLSI[Aib]K([AEEA-AEEA-γGlu-γGlu-C18 diacid])DRIHQEEFIEWLLAQGPSSGAPPPS-NH2) | – | – | >9.7 mg/mL | > 9300 µg/mL | > 0.01 µM
4 | CC[C@H](C)[C@H](NC(=O)[C@H](Cc1ccccc1)NC(=O)[C@H](CCC(=O)O)NC(=O)[C@H](CCC(=O)O)NC(=O)[C@H](CCC(N)=O)NC(=O)[C@H](Cc1c[nH]cn1)NC(=O)[C@@H](NC(=O)[C@H](CCCNC(=N)N)NC(=O)[C@H](CC(=O)O)NC(=O)[C@H](CCCCNC(=O)COCCOCCNC(=O)COCCOCCNC(=O)COCCOCCNC(=O)CC[C@H](NC(=O)CCCCCCCCCCCCCCCCC(=O)O)C(=O)O)NC(=O)C(C)(C)NC(=O)[C@@H](NC(=O)[C@H](CO)NC(=O)[C@H](CC(C)C)NC(=O)[C@H](CC(=O)O)NC(=O)[C@H](CO)NC(=O)[C@@H](NC(=O)[C@H](Cc1ccccc1)NC(=O)[C@@H](NC(=O)CNC(=O)[C@H](CCC(=O)O)NC(=O)C(C)(C)NC(=O)[C@@H](N)Cc1ccc(O)cc1)[C@@H](C)O)[C@@H](C)CC)[C@@H](C)CC)[C@@H](C)CC)C(=O)N[C@@H](CCC(=O)O)C(=O)N[C@@H](Cc1c[nH]c2ccccc12)C(=O)N[C@@H](CC(C)C)C(=O)N[C@@H](CC(C)C)C(=O)N[C@@H](C)C(=O)N[C@@H](CCC(N)=O)C(=O)NCC(=O)N1CCC[C@H]1C(=O)N[C@@H](CO)C(=O)N[C@@H](CO)C(=O)NCC(=O)N[C@@H](C)C(=O)N1CCC[C@H]1C(=O)N1CCC[C@H]1C(=O)N1CCC[C@H]1C(=O)N[C@@H](CO)C(N)=O [SEQ ID NO: 12, H2N-Y-Aib-E-G-T-F-I-S-D-I-S-I-Aib-K[{AEEA}3-gGlu-C18OH]-DRIHQEEFIEWILAQGPSSGAPPPS-NH2] (H-Y[Aib]EGTFISDLSI[Aib]K([AEEA-AEEA-AEEA-γGlu-C18 diacid])DRIHQEEFIEWLLAQGPSSGAPPPS-NH2) | – | – | >9.1 mg/mL | > 8800 µg/mL | > 0.01 µM
